What all share (assay type): cell-based
What all share (settings): lowest concentration inhibiting 95% of bacterial growth; in the presence of β lactamase inhibitor (BLi, Relebactam); 22 hours, 35±2° C., OD600

The subject of assay [1] is Pseudomonas aeruginosa expressing AmpC (CL5701). As for the experimental part:
(§1) Antibiotic Activity: Determination of Growth Inhibitory Concentration
(§2) The concentrations of compounds required to inhibit the growth of various strains of bacteria were determined in an assay that assessed bacterial growth by measuring optical density at 600 nm (OD600). The bacterial strains tested included the clinical strains Escherichia coli expressing NDM-1 (CLB30016), Klebsiella pneumoniae expressing KPC-1 (CL6569), Acinetobacter baumannii expressing TEM-1, AmpC, and Oxa-24/40 (CL6188) and Pseudomonas aeruginosa expressing AmpC (CL5701). All compounds were tested in the presence of a β lactamase inhibitor (BLi, Relebactam) in 384-well microplates. The clinical strains were stored as frozen single use stocks, thawed and diluted into 1.1× cation-adjusted Mueller-Hinton II broth to achieve approximately 2×10^5 CFU/mL. Test compounds were dissolved in DMSO and diluted 1:50 in the assay, resulting in a final concentration range of 100 μM to 0.098 μM. On the day of the assay, 1 μL of test compound was added to the plate followed by 4 μL of 50 μg/mL BLi in MOPS buffer and 45 μL of diluted bacteria. Plates were centrifuged at 1000 rpm for 30 seconds, shaken at approximately 800 rpm for 1 minute, and incubated at 35±2° C. for 22 hours. The concentration of BLi used in the assay was […]. At the end of the incubation, absorbance at 600 nm was determined using a spectrophotometer. Inhibition was quantitated by identifying the lowest concentration of test compound that was required to inhibit 95% of the growth of the bacteria. The results for Examples 1-39 are reported in Table I, expressed as the concentration of compound that inhibited 95% of bacterial growth (Minimum Inhibitory Threshold Concentration; MITC95).

In assay [2] the test system is Klebsiella pneumoniae expressing KPC-1 (CL6569). As for the experimental part:
as §1, §2

Assay [3] concerns Escherichia coli expressing NDM-1 (CLB30016). The protocol: as §1, §2
Assay [4] deals with Acinetobacter baumannii expressing TEM-1, AmpC, and Oxa-24/40 (CL6188). The protocol:
as §1, §2

Structures can show the parent of a compound that is named as a salt.

`CC1(C)[C@H](NC(=O)/C(=N\O[C@](C)(C(=O)O)C2CCc3cc(-c4cn(C[C@@H](O)CN)[n+](CCCN)c4)ccc3O2)c2csc(N)n2)C(=O)N1OS(=O)(=O)[O-]` (mixture of isomers) [Example 5, (3 S)-3-((Z)-2-(((1 S)-1-(6-(1-((S)-3-amino-2-hydroxypropyl)-2-(3-aminopropyl)-1H-pyrazol-2-ium-4-yl)chroman-2-yl)-1-carboxyethoxy)imino)-2-(2-aminothiazol-4-yl)acetamido)-2,2-dimethyl-4-oxoazetidin-1-yl Sulfate]: in assay [1], the “PA_CL5701 MITC95” value came to 50 µM. Also, the “KP_CL6569 MITC95” value in assay [2] stood at 6.25 µM. Also, the “EC_CLB30016 MITC95” value in assay [3] was determined as 100 µM. Also, the “AB_CL6188 MITC95” value in assay [4] came out at 25 µM.

As for “(S)-3-((Z)-2-(((S)-1-((R)-6-(1-(3-Aminopropyl)-2-(azetidin-3-ylmethyl)-1H-pyrazol-2-ium-4-yl)chroman-2-yl)-1-carboxyethoxy)imino)-2-(2-aminothiazol-4-yl)acetamido)-2,2-dimethyl-4-oxoazetidin-1-yl Sulfate [Example 3]”, in assay [1], the “PA_CL5701 MITC95” value worked out at 6.25 µM. Besides, the “KP_CL6569 MITC95” value in assay [2] stood at 0.39 µM. Moreover, in assay [3], the “EC_CLB30016 MITC95” value turned out to be 3.13 µM. Besides, in assay [4], the “AB_CL6188 MITC95” value amounted to 6.25 µM.

With `CC1(C)[C@H](NC(=O)/C(=N\O[C@](C)(C(=O)O)[C@H]2CCc3cc(C4CNC(NCCN)=N4)ccc3O2)c2csc(N)n2)C(=O)N1OS(=O)(=O)O` (single isomer, unassigned) [Example 26], the “PA_CL5701 MITC95” value in assay [1] turned out to be 50 µM. Besides, the “KP_CL6569 MITC95” value in assay [2] is 1.563 µM. Further, the “EC_CLB30016 MITC95” value in assay [3] came out at 100 µM. In addition, the “AB_CL6188 MITC95” value in assay [4] worked out at 12.5 µM.

Regarding `CC1(C)[C@H](NC(=O)/C(=N\O[C@](C)(C(=O)O)[C@H]2CCc3cc(-c4cn(C[C@@H](O)CN)[n+](CC5CNC5)c4)ccc3O2)c2csc(N)n2)C(=O)N1OS(=O)(=O)[O-]` [Example 4, (S)-3-((Z)-2-(((S)-1-((R)-6-(1-((S)-3-Amino-2-hydroxypropyl)-2-(azetidin-3-ylmethyl)-1H-pyrazol-2-ium-4-yl)chroman-2-yl)-1-carboxyethoxy)imino)-2-(2-aminothiazol-4-yl)acetamido)-2,2-dimethyl-4-oxoazetidin-1-yl Sulfate], the “PA_CL5701 MITC95” value in assay [1] came to 25 µM. The “KP_CL6569 MITC95” value in assay [2] was 1.281 µM. Besides, the “EC_CLB30016 MITC95” value in assay [3] was 12.5 µM. Further, the “AB_CL6188 MITC95” value in assay [4] came out at 6.25 µM.

`C[n+]1cc(-c2ccc3c(c2)CC[C@H]([C@](C)(O/N=C(\C(=O)N[C@@H]2C(=O)N(OS(=O)(=O)[O-])C2(C)C)c2csc(N)n2)C(=O)O)O3)ccc1CC(CN)CN.O=CO` [Example 16, (3S)-3-((Z)-2-(((1S)-1-((2R)-6-(6-(3-amino-2-(ammonio-methyl)propyl)-1-methylpyridin-1-ium-3-yl)chroman-2-yl)-1-carboxyethoxy)imino)-2-(2-aminothiazol-4-yl)acetamido)-2,2-dimethyl-4-oxoazetidin-1-yl sulfate formate]: the “PA_CL5701 MITC95” value in assay [1] came out at 3.125 µM. In addition, the “KP_CL6569 MITC95” value in assay [2] turned out to be 0.3906 µM. Further, the “EC_CLB30016 MITC95” value in assay [3] amounted to 6.25 µM. Also, the “AB_CL6188 MITC95” value in assay [4] worked out at 3.125 µM.

As for `CC1(C)[C@H](NC(=O)/C(=N\O[C@](C)(C(=O)O)[C@H]2CCc3cc(C4CNC(NCCN)=N4)ccc3O2)c2csc(N)n2)C(=O)N1OS(=O)(=O)O` (single isomer, unassigned) [Example 25], in assay [1], the “PA_CL5701 MITC95” value was 3.125 µM. The “KP_CL6569 MITC95” value in assay [2] amounted to 0.3906 µM. Besides, the “EC_CLB30016 MITC95” value in assay [3] is 6.25 µM. Besides, in assay [4], the “AB_CL6188 MITC95” value came out at 50 µM.

As for `CC1(C)[C@H](NC(=O)/C(=N\O[C@](C)(C(=O)O)[C@H]2CCc3cc(-c4cnc(NCCCN)nc4)ccc3O2)c2csc(N)n2)C(=O)N1OS(=O)(=O)O` [Example 33, 3-((5-((R)-2-((S)-1-((((Z)-1-(2-aminothiazol-4-yl)-2-(((S)-2,2-dimethyl-4-oxo-1-(sulfooxy)azetidin-3-yl)amino)-2-oxoethylidene)amino)oxy)-1-carboxyethyl)chroman-6-yl)pyrimidin-2-yl)amino)propan-1-aminium Formate], the “PA_CL5701 MITC95” value in assay [1] amounted to 6.25 µM. The “KP_CL6569 MITC95” value in assay [2] came out at 0.3906 µM. For the same compound, the “EC_CLB30016 MITC95” value in assay [3] came out at 6.25 µM. The “AB_CL6188 MITC95” value in assay [4] is 3.125 µM.

On to `C[n+]1cc(-c2ccc3c(c2)CC[C@H]([C@](C)(O/N=C(\C(=O)N[C@@H]2C(=O)N(OS(=O)(=O)[O-])C2(C)C)c2csc(N)n2)C(=O)O)O3)cn1CC1(N)CNC1` [Example 6, (S)-3-((Z)-2-(((S)-1-((R)-6-(1-((3-Aminoazetidin-3-yl)methyl)-2-methyl-1H-pyrazol-2-ium-4-yl)chroman-2-yl)-1-carboxyethoxy)imino)-2-(2-aminothiazol-4-yl)acetamido)-2,2-dimethyl-4-oxoazetidin-1-yl Sulfate], for which, in assay [1], the “PA_CL5701 MITC95” value amounted to 100 µM. In addition, the “KP_CL6569 MITC95” value in assay [2] worked out at 12.5 µM. Besides, in assay [3], the “EC_CLB30016 MITC95” value amounted to 100 µM. In assay [4], the “AB_CL6188 MITC95” value was 100 µM.

As for `CC1(C)[C@H](NC(=O)/C(=N\O[C@](C)(C(=O)O)[C@H]2CCc3cc(-c4ccc5[n+](c4)CC(CN)CN5CCN)ccc3O2)c2csc(N)n2)C(=O)N1OS(=O)(=O)[O-].O=CO` (stereo partly shown) [Example 39], the “PA_CL5701 MITC95” value in assay [1] came out at 3.125 µM. The “KP_CL6569 MITC95” value in assay [2] amounted to 0.3255 µM. Further, the “EC_CLB30016 MITC95” value in assay [3] was determined as 12.5 µM. The “AB_CL6188 MITC95” value in assay [4] was 7.292 µM.

`CC1(C)[C@H](NC(=O)/C(=N\O[C@](C)(C(=O)O)[C@H]2CCc3cc(-c4cnc(NC[C@H](O)CN)[n+](CC5CNC5)c4)ccc3O2)c2csc(N)n2)C(=O)N1OS(=O)(=O)[O-].O=CO` [Example 19, (S)-3-((Z)-2-(((S)-1-((R)-6-(2-(((R)-3-amino-2-hydroxy-propyl)amino)-1-(azetidin-1-ium-3-ylmethyl)pyrimidin-1-ium-5-yl)chroman-2-yl)-1-carboxyethoxy)imino)-2-(2-aminothiazol-4-yl)acetamido)-2,2-dimethyl-4-oxoazetidin-1-yl sulfate formate]: the “PA_CL5701 MITC95” value in assay [1] amounted to 12.5 µM. Further, in assay [2], the “KP_CL6569 MITC95” value came to 0.7813 µM. Moreover, the “EC_CLB30016 MITC95” value in assay [3] came to 6.25 µM. Moreover, the “AB_CL6188 MITC95” value in assay [4] is 12.5 µM.

For the compound `C[n+]1cc(-c2ccc3c(c2)CC[C@H]([C@](C)(O/N=C(\C(=O)N[C@@H]2C(=O)N(OS(=O)(=O)[O-])C2(C)C)c2csc(N)n2)C(=O)O)O3)cnc1N(CCN)CC1CNC1.O=CO` [Example 15, (S)-3-((Z)-2-(((S)-1-((R)-6-(2-((2-aminoethyl)(azetidin-1-ium-3-ylmethyl)amino)-1-methylpyrimidin-1-ium-5-yl)chroman-2-yl)-1-carboxyethoxy)imino)-2-(2-aminothiazol-4-yl)acetamido)-2,2-dimethyl-4-oxoazetidin-1-yl sulfate formate], the “PA_CL5701 MITC95” value in assay [1] amounted to 6.25 µM. Moreover, the “KP_CL6569 MITC95” value in assay [2] is 0.3906 µM. In addition, the “EC_CLB30016 MITC95” value in assay [3] worked out at 6.25 µM. The “AB_CL6188 MITC95” value in assay [4] came to 3.125 µM.

For `CC1(C)[C@H](NC(=O)/C(=N\O[C@](C)(C(=O)O)[C@H]2CCc3cc(-c4ccc(NCCCN)[n+](CC5CNC5)c4)ccc3O2)c2csc(N)n2)C(=O)N1OS(=O)(=O)[O-].O=CO` [Example 22, (S)-3-((Z)-2-(((S)-1-((R)-6-(6-((3-aminopropyl)amino)-1-(azetidin-1-ium-3-ylmethyl)pyridin-1-ium-3-yl)chroman-2-yl)-1-carboxyethoxy)imino)-2-(2-aminothiazol-4-yl)acetamido)-2,2-dimethyl-4-oxoazetidin-1-yl sulfate formate], the “PA_CL5701 MITC95” value in assay [1] came out at 25 µM. The “KP_CL6569 MITC95” value in assay [2] worked out at 0.7813 µM. In addition, the “EC_CLB30016 MITC95” value in assay [3] turned out to be 12.5 µM. In addition, the “AB_CL6188 MITC95” value in assay [4] stood at 12.5 µM.

In the case of `CC1(C)[C@H](NC(=O)/C(=N/O[C@](C)(C(=O)O)[C@H]2CCc3cc(C4CN=C(NC[C@H](O)CN)NC4)ccc3O2)c2csc(N)n2)C(=O)N1OS(=O)(=O)O.O=CO` (stereo partly drawn) [Example 28, 2-(((R)-3-amino-2-hydroxypropyl)amino)-5-((R)-2-((S)-1-((((E)-1-(2-aminothiazol-4-yl)-2-(((S)-2,2-dimethyl-4-oxo-1-(sulfooxy)azetidin-3-yl)amino)-2-oxoethylidene)amino)oxy)-1-carboxyethyl)chroman-6-yl)-3,4,5,6-tetrahydropyrimidin-1-ium formate], in assay [1], the “PA_CL5701 MITC95” value is 3.13 µM. In addition, the “KP_CL6569 MITC95” value in assay [2] was 0.2 µM. In assay [3], the “EC_CLB30016 MITC95” value is 6.25 µM. Moreover, in assay [4], the “AB_CL6188 MITC95” value amounted to 3.13 µM.

The record behind these values is patent publication US11433055B2, “Chromane monobactam compounds for the treatment of bacterial infections” (priority 2017, dated 2022).
